Source: US6479488B1, “Tetrahydroquinoline derivatives as EAA antagonists” (Glaxo Wellcome SpA, priority 1996, dated 2002)

Columns and labels:
[1] = system: generalized seizures induced by an intracerebroventicular injection of NMDA; test: Inhibition of NMDA induced convulsions in the mouse (procedure of Chiamulera et al.); assay type: in vivo; settings: mice, iv, 0.1 mg/kg dose, NMDA icv induced generalized seizures
Experimental: The ability of compounds of the invention to inhibit NMDA induced convulsions in the mouse was determined using the procedure of Chiamulera C et al. Psychopharmacology 1990, 102, 551-552. In this test the ability of the compound when administered iv to inhibit the generalized seizures induced by an intracerebroventicular injection of NMDA in mice was examined at 0.1 mg/kgdose.
The results as percent (%) of inhibition at 0.1 mg/kg dose for representative compounds are given below: […]

[2] = target: T1, strychnine insensitive glycine binding site located on the NMDA receptor complex (Rattus norvegicus, UniProt P35439); test: Affinity for strychnine insensitive glycine binding site (procedure of Kishimoto et al.)
T1 construct: from tissue
Experimental: The potent and selective action of the compound of the invention at the strychnine-insensitive glycine binding site present on the NMDA receptor complex may be readily determined using conventional test procedures. Thus the ability to bind at the strychnine insensitive glycine binding site was determined using the procedure of Kishimoto H et al. J Neurochem 1981, 37 1015-1024. The selectivity of the action of compounds of the invention for the strychnine insensitive glycine site was confirmed in studies at other ionotropic known excitatory amino acid receptors.
The affinity of a compound of the invention for strychnine insensitive glycine binding site located on the NMDA receptor complex was determined using the procedure of Kishimoto H. et al J. Neurochem 1981, 37, 1015-1024.

Structure (SMILES) | % of inhibition [1] [%] | Ki [2] [nM]
NC(=O)C=Cc1ccc(NC(=O)C=C2CC(C(=O)O)Nc3cc(Cl)cc(Cl)c32)cc1 (racemic) [Example 3, (+/−(E,E)-4-[4-(2-Carbamoyl-vinyl)-phenylcarbamoylmethylene]-5,7-dichloro-1,2,3,4-tetrahydro-quinoline-2-carboxylic Acid] | 40 | 7.94
O=C(C=C1CC(C(=O)O)Nc2cc(Cl)cc(Cl)c21)Nc1ccc(OCCN2CCOCC2)cc1 (racemic) [Example 4, (+/−)(E)-5,7-Dichloro-4-[4-(2-morpholin-4-yl-ethoxy)-phenylcarbamoylmethylene]-1,2,3,4-tetrahydro-guinoline-2-carboxylic Acid] | – | 63.1
N#CCc1ccc(NC(=O)/C=C2\CC(C(=O)O)Nc3cc(Cl)cc(Cl)c32)cc1 (racemic) [Example 5, (+/−)(E)-5,7-Dichloro-4-(4-cyanomethyl-phenylcarbamoylmethylene)-1,2,3,4-tetrahydro-quinoline-2-carboxylic Acid] | – | 7.94
CC(C)C(=O)NCCOc1ccc(NC(=O)C=C2CC(C(=O)O)Nc3cc(Cl)cc(Cl)c32)cc1 (racemic) [Example 6, (+/−)(E)-5,7-Dichloro-4-[4-(2-isobutyrylamino-ethoxy)-phenylcarbamoylmethylene]-1,2,3,4-tetrahydro-guinoline-2-carboxylic Acid] | 40 | 15.8
COCC(=O)Nc1ccc(NC(=O)C=C2CC(C(=O)O)Nc3cc(Cl)cc(Cl)c32)cc1 (racemic) [Example 7, (+/−)(E)-5,7-Dichloro-4-[4-(2-methoxy-acetylamino)-phenylcarbamoylmethylene-1,2,3,4-tetrahydro-quinoline-2-carboxylic Acid] | 40 | 6.31
CC(C)C(=O)NCC(=O)Nc1ccc(NC(=O)/C=C2\CC(C(=O)[O-])Nc3cc(Cl)cc(Cl)c32)cc1.[Na+] (racemic) [Example 9, (+/−)(E)-5,7-Dichloro-4-(4-isobutyrylaminomethylcarbonylamino-phenylcarbamoylmethylene)-1,2,3,4-tetrahydro-quinoline-2-carboxylic Acid Sodium Salt] | 40 | 7.94
